{
  "source": "patent US20060040312A1",
  "about": "(priority 1999, published 2006)",
  "key": {"[1]": {"system": "primary cortical cultures"}, "[2]": {"target": "F425G Shaker mutation (Drosophila melanogaster, UniProt P08510, F425G)", "sequence (P08510 whole entry F425G)": "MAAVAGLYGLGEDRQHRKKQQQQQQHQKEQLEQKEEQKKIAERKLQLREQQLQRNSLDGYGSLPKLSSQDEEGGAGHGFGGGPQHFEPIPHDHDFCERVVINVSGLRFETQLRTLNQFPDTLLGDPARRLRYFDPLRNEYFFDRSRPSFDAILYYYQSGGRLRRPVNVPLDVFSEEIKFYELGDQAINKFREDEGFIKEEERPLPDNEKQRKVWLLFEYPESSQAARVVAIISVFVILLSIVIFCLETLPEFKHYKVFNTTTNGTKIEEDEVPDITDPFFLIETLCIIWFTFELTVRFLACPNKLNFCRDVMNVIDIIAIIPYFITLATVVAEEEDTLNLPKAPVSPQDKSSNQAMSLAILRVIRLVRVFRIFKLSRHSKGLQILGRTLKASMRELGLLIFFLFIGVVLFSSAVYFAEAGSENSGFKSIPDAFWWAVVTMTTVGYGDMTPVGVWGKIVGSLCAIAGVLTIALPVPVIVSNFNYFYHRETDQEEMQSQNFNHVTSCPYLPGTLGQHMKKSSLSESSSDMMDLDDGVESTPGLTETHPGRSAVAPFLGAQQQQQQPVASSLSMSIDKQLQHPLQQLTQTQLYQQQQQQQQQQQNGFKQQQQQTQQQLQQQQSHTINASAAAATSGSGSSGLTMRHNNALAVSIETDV", "settings": "cited from earlier work"}, "[3]": {"system": "cortical cells"}, "[4]": {"system": "cardiac ventricular myocytes", "format": "cell-based, rat"}, "[5]": {"settings": "rat, in vivo, iv"}, "[6]": {"system": "primary cultures of cortex"}, "[7]": {"target": "Kv1.4 (Homo sapiens, UniProt P22459)", "sequence (P22459 whole entry)": "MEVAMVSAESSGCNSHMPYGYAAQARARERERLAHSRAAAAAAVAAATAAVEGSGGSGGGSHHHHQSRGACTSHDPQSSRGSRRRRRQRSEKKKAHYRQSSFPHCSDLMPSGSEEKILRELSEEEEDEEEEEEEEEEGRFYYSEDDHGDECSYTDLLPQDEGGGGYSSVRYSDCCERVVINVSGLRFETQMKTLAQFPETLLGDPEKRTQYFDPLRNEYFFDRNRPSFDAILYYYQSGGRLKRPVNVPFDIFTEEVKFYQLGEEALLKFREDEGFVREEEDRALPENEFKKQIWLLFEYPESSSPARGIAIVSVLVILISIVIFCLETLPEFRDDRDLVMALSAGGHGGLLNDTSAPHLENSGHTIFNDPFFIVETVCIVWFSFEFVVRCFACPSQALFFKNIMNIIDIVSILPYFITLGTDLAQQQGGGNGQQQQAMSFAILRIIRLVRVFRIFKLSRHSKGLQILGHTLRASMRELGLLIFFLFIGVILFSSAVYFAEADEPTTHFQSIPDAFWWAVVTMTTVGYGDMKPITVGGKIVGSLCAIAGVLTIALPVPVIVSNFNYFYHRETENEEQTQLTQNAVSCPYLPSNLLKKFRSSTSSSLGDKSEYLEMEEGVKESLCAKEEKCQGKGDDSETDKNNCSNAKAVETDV", "settings": "cited from earlier work"}, "[8]": {"system": "single tracheal, neuronal or myocyte cells", "format": "cell-based, rat"}, "[9]": {"system": "primary cultures of cortex", "format": "cell-based, rat"}, "[10]": {"system": "primary cultures of cortex", "format": "cell-based, rat", "remark": "listed apart in the source"}, "[11]": {"system": "cardiac myocytes", "format": "cell-based, rat"}, "[12]": {"system": "primary cultures of cortex", "format": "cell-based, rat", "remark": "listed apart in the source"}, "[13]": {"target": "Shaker H4 potassium channel (Drosophila melanogaster, UniProt P08510)", "sequence (P08510 whole entry)": "as the sequence (P08510 whole entry F425G) above, with G425F counted along it", "settings": "cited from earlier work"}, "[14]": {"system": "cortex", "format": "cell-based, rat"}, "[15]": {"target": "T1, Kv1.3 (Homo sapiens, UniProt P22001)", "T1 construct": "host or cells: oocytes", "T1 sequence (P22001 whole entry)": "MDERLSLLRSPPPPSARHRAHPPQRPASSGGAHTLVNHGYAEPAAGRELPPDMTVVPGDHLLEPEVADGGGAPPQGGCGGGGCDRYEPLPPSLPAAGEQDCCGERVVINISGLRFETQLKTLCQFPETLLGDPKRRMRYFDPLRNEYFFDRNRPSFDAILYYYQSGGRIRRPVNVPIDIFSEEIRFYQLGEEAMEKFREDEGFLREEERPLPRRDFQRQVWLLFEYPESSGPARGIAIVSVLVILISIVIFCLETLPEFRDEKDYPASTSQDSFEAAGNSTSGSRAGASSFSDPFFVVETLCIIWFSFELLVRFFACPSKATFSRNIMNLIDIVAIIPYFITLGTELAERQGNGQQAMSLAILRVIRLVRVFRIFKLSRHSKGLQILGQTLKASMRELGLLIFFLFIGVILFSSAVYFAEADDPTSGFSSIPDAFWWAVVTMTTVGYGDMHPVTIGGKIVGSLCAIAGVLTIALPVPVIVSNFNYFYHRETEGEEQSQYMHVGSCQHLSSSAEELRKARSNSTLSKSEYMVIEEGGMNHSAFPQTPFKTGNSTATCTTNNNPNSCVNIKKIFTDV", "settings": "cited from earlier work"}, "[16]": {"target": "T2, Kv1.1 (Homo sapiens, UniProt Q09470)", "T2 construct": "host or cells: oocytes", "T2 sequence (Q09470 whole entry)": "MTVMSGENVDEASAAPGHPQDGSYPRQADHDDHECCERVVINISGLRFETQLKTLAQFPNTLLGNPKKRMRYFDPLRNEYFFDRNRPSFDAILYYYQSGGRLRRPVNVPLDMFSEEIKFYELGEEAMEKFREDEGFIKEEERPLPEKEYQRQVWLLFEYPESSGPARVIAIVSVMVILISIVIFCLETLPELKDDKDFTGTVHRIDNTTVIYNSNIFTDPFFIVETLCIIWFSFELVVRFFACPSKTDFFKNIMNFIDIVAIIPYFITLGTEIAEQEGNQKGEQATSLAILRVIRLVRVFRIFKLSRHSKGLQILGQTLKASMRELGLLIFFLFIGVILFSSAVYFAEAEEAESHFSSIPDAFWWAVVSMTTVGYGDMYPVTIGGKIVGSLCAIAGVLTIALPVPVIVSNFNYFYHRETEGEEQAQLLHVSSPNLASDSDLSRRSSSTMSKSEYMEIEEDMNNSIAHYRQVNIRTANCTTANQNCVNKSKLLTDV", "settings": "cited from earlier work"}, "[17]": {"system": "histamine-contracted, isolated Guinea pig tracheal segments"}, "[18]": {"system": "trachea", "format": "cell-based, rat"}, "[19]": {"system": "primary cultures of cortical neurons", "format": "cell-based, rat"}, "[20]": {"system": "primary cultures of ventricular myocytes"}, "[21]": {"system": "primary cultures of ventricular myocytes", "format": "cell-based, rat"}},
  "note": "Several values for one entry are separate records, joined by “and”; a condition that tells them apart may be missing. Equal entries are not always repeated. Entries after “also recorded” stand apart in the source; their conditions may differ. Positions of bridges follow the written chain, without caps; N, C: chain ends. Non-standard residues stand in square brackets, D forms with d. Residues, ends and D or L forms follow the SMILES beside them. Hyp = O=C(O)[C@@H]1C[C@@H](O)CN1",
  "data": [
    {"smiles": "CC[C@H](C)[C@@H]1NC(=O)[C@H](CCCNC(=N)N)NC(=O)[C@@H](N)CSSC[C@@H]2NC(=O)[C@@H]3CSSC[C@@H](C(=O)N[C@H](C(=O)O)C(C)C)NC(=O)[C@H](CCCCN)NC(=O)[C@H](CC(N)=O)NC(=O)[C@H](Cc4ccccc4)NC(=O)[C@H](CCCNC(=N)N)NC(=O)[C@H](CC(N)=O)NC(=O)[C@H](CSSC[C@H](NC(=O)[C@H](CCCCN)NC(=O)[C@H](CCC(N)=O)NC(=O)[C@H](CC(N)=O)NC(=O)[C@@H]4C[C@@H](O)CN4C1=O)C(=O)N[C@@H](Cc1ccccc1)C(=O)N[C@@H](CCC(N)=O)C(=O)N[C@@H](Cc1c[nH]cn1)C(=O)N[C@@H](CC(C)C)C(=O)N[C@@H](CC(=O)O)C(=O)N[C@@H](CC(=O)O)C(=O)N3)NC(=O)[C@H](CCCCN)NC(=O)[C@H](CCCNC(=N)N)NC(=O)[C@H](CO)NC2=O", "note": "[κ-PVIIA, kappa-conotoxin PVIIA] (H-CRI[Hyp]NQKCFQHLDDCCSRKCNRFNKCV-OH; disulfide 1-16, 8-20, 15-26)", "values": [
      {"measurement": "protease activity (cytotoxicity)", "setting": "[1]", "value": "no detectable protease activity"},
      {"measurement": "effect of F425G Shaker mutation on toxin affinity / sensitivity", "setting": "[2]", "value": "abolishes"},
      {"measurement": "degree of glutamate-induced excitotoxicity", "setting": "[3]", "value": "effectively reduces the degree of glutamate-induced excitotoxicity in a dose-dependant manner"},
      {"measurement": "protection against delayed cytotoxic effects of glutamate", "setting": "[3]", "value": "very effective protection"},
      {"measurement": "protection against hypoxia-induced depolarization", "setting": "[4]", "value": "prevented any hypoxia-induced changes in membrane potential; also recorded: strong protective effect; also recorded: confers protection"},
      {"measurement": "effect on blood pressure", "setting": "[5]", "value": "no effect"},
      {"measurement": "effect on heart rate", "setting": "[5]", "value": "no effect"},
      {"measurement": "EC50", "setting": "[6]", "value": 0.0008, "unit": "pM"},
      {"measurement": "activity on Kv1.4", "setting": "[7]", "value": "no detectable activity"},
      {"measurement": "protection against hypoxia-induced changes in membrane potential (current-clamp)", "setting": "[8]", "value": "A similar result"},
      {"measurement": "current corrected for cell capacitance", "setting": "[9]", "value": "2.4±0.7", "unit": "pA/pf"},
      {"measurement": "current evoked", "setting": "[9]", "value": "26.2±6.2", "unit": "pA"},
      {"measurement": "reversal potential of the evoked current", "setting": "[9]", "value": "~−20", "unit": "mV"},
      {"measurement": "change in intracellular K+ concentration (PBFI)", "setting": "[10]", "value": "reduction"},
      {"measurement": "current corrected for cell capacitance", "setting": "[11]", "value": "4.6±0.4", "unit": "pA/pf"},
      {"measurement": "current evoked", "setting": "[11]", "value": "87.7±5.9", "unit": "pA"},
      {"measurement": "induction of currents", "setting": "[11]", "value": "induces glibenclamide-sensitive currents"},
      {"measurement": "initial glutamate-induced depolarization (current-clamp)", "setting": "[12]", "value": "prevents the initial glutamate-induced depolarization"},
      {"measurement": "block / inhibition of the Shaker channel", "setting": "[13]", "value": "block"},
      {"measurement": "protection against hypoxia (intracellular calcium, fluo-3)", "setting": "[14]", "value": "able to provide protection against hypoxia"},
      {"measurement": "effects on Kv1.3", "setting": "[15]", "value": "no effects"},
      {"measurement": "activity on Kv1.1", "setting": "[16]", "value": "no detectable activity; also recorded: no effects"},
      {"measurement": "relaxation of histamine-contracted tracheal segments", "setting": "[17]", "value": "able to relax"},
      {"measurement": "protection against hypoxia (intracellular calcium, fluo-3)", "setting": "[18]", "value": "able to provide protection against hypoxia"},
      {"measurement": "change in intracellular calcium (Fluo-3 fluorescence)", "setting": "[19]", "value": "−2.15±0.95% and −8.8±3.9%"},
      {"measurement": "effect on intracellular calcium (Fluo-3)", "setting": "[19]", "value": "significant reduction"},
      {"measurement": "EC50", "setting": "[20]", "value": 0.0009, "unit": "pM"},
      {"measurement": "protection against hypoxia (intracellular calcium, fluo-3)", "setting": "[21]", "value": "able to provide protection against hypoxia"}
    ]}
  ]
}
